Source: US20140011867A1, “EFFECT OF BORRELIDIN FOR CONTROLLING SOYBEAN PHYTOPHTHORA ROOT ROT” (ZHEJIANG HISUN PHARMACEUTICAL CO., LTD., priority 2011, published 2014)
Values after ≈ are worked out from the molar mass of the structure shown. Read-outs that look alike come from different tables or passages of the source.

System: Phytophthora sajae Kaufmann & Gerdeman
Assay: Mycelial growth inhibition assay (growth rate method)
Type: cell-based
Design: IC50 as fraction of that of metalaxyl: unit not given beside the values
Experimental: Growth rate method was used in the assays. […] Phytophthora sajae Kaufmann & Gerdeman cultures after 7 days of culture were punched using a sterile punch (Ø0.5cm) and put on standby, and the cultures were later transferred onto […] (CA) plate culture media and placed at a temperature of 27±1° C., and colony diameters were measured after 7 days of culture.

[1] = mycelial growth, CA plate, 27±1° C., colony diameter after 7 days
[2] = mycelial growth inhibition assay

| Compound | IC50 (Phytophthora, 168 h, mycelial growth, CA plate, 27±1° C., colony diameter after 7 days, read-out: IC50) [µg/mL] | IC95 [1] [µg/mL] | IC50 as fraction of that of metalaxyl [2] | IC95 as fraction of that of metalaxyl [2] | IC50 (mycelial growth inhibition assay, unit inferred) [µg/mL] | IC95 (mycelial growth inhibition assay, unit not given) |
| --- | --- | --- | --- | --- | --- | --- |
| COCC(=O)N(c1c(C)cccc1C)C(C)C(=O)OC (stereo not shown) [Metalaxyl, reference compound] | 0.35 (≈ 1.25 µM) | 6.85 (≈ 24.5 µM) | – | – | – | – |
| Borrelidin | – | 0.026 | 1/62 | 1/263 | 0.0056 | 0.026 |
